Assay results from BindingDB's records for doi:10.1021/jm960092w (Agouron Pharmaceuticals, 1996).

Target: T1, Dimer of Gag-Pol polyprotein [489-587] (Human immunodeficiency virus 1, UniProt P12497)
T1 construct: 489-587
Test: Protease Inhibition Assay
Details: pH 5.6; 37 °C
Procedure: Protease activity was measured by continuous chromogenic assay. The chromogenic peptide His-Lys-Ala-Arg-Val-Leu-(p-NO2-Phe)-Glu-Ala-Nleu-Ser was used as a substrate. Reactions were followed by the decrease of absorbance at 300 nm measured by spectrophotometer. Experimental results were analyzed by the nonlinear regression analysis, using a mathematical model for tight binding inhibitors.

CC(C)(C)NC(=O)c1ccccc1C[C@@H](O)[C@H](Cc1ccccc1)NC(=O)[C@H](CC(N)=O)NC(=O)c1ccc2ccccc2n1 [(2S)-N-[(2S,3R)-4-[2-(tert-butylcarbamoyl)phenyl]-3-hydroxy-1-phenylbutan-2-yl]-2-(quinolin-2-ylformamido)butanediamide]
Ki: 2 nM
